Measurements from patent US20070082914A1, “4-(4-Methylpiperazin-1-ylmethyl)-n-[4-methyl-3-(4-pyridin-3-yl)pyrimidin-2-ylamino)phenyl]-benzamide for treating pulmonary fibrosis” (priority 2002, published 2007).
Counter-ions that a name gives are not always drawn.

Test system: Asbestos-Exposed Mice
Assay: Asbestos-exposed mice: morphometric analysis of first alveolar duct bifurcations
Assay type: in vivo
Conditions: asbestos-exposed C57BL/6 mice, 30 days following exposure
Method: Asbestos Exposure: Eight week old C57BL/6 mice are exposed to 15 mg/m^3 of chrysotile asbestos in inhalation chambers for a period of 5 hours, for 3 consecutive days, as described previously in detail in our earlier publications (Lasky et al. Am. J. Respir. Crit. Care Med. (1998) 157:1652-7). This asbestos exposure induces fibroblast proliferation and a morphometrically characterized lesion at the alveolar duct bifurcations (Brody et al., Am Rev Respir Dis. (1981) 123:670-9). Sham-exposed (ambient air) animals are used as controls. The groups include: sham-exposed with vehicle; asbestos-exposed with vehicle; and asbestos exposed with COMPOUND I (imatinib mesylate). Five mice from each of these […] are sacrificed 30 days following exposure and used for determining the dimensions of the alveolar duct bifurcations. […]
Morphometric Analysis: H & E stained sections from exposed and control animals from the 30 day time point are masked. Bifurcation area is measured using an Olympus microscope with a video camera interfacing with a PC utilizing V150 imaging software (Fermin et al., J Anat. (1995) 186:469-81). The total area and perimeter of each of five first alveolar duct bifurcations is measured as previously described (Perdue et al., J. Histochem. Cytochem. (1994) 42:1061-70). […]

Cc1ccc(NC(=O)c2ccc(CN3CCN(C)CC3)cc2)cc1Nc1nccc(-c2cccnc2)n1 [SALT I, 4[-(4-methyl-1-piperazin-1-ylmethyl)-N-[4-methyl-3-[[4-(3-pyridinyl)-2-pyrimidinyl]amino]phenyl]benzamide methanesulfonate]
First alveolar duct area (100 mg COMPOUND I free base/kg i.p. once per day, from the day preceding exposure and for 14 days thereafter, group mean): 1875 square micrometers
reduction of the size of the lesion (fibrotic scar at first alveolar duct bifurcations) (100 mg free base/kg i.p. once per day, P=0.02): 43%
